From US20240251801A1, “COMPOSITIONS AND METHODS FOR IMPROVING PLANT HEALTH AND CONTROLLING PLANT DISEASE” (AgBiome, Inc., priority 2021, published 2024)

How the values were obtained:
Format in all cases: in vivo
[1] = tested on: Colletotrichum sublineolum; assay: Detached sorghum leaf piece assay, control of anthracnose; settings: sorghum leaf pieces, strain 1×10^8 CFU/ml, pyraclostrobin 10 ppm
Protocol: (§1) For detached-leaf assays performed in the following examples, bacterial strains stored in a freezer (−80° C.) were each streaked onto Luria Bertani (LB) agar (25 g LB broth and 15 g agar per liter of deionized water) in an 8.5-cm diameter plastic plate. A single colony from the plate was picked and placed in 50 ml of either LB liquid broth or a liquid broth consisting of NaCl (5 g), tryptone (10 g), nutrient broth (8 g), CaCl2 (0.14 mM), MgCl2·6H2O (0.2 mM), and MnCl2·4H2O (0.01 mM) per liter of deionized water in a 250-ml flask. Calcium chloride (CaCl2), MgCl2, and MnCl2 were filtered sterilized using 0.22 μm vacuum filter and were then added to NaCl, tryptone, nutrient broth (which were autoclaved together). Cultures were harvested after 48 h by pelleting cells and re-suspending to original volume in sterile H2O. Colony forming units (CFU/mL) were determined using standard dilution plate count method, and plates were inspected for signs of contamination. Sterile distilled water was added to achieve a final concentration needed in detached-leaf or growth chamber strain evaluations. […]
Seven days post inoculation, the leaf pieces were assessed for anthracnose severity on a scale of 0-4 according to Prom et al., 2016 (Plant Path J. 15(1): 11-16), with few modifications. […] Data was analyzed using analysis of variance (ANOVA) in JMP® (version 14.0.0; SAS Institute Inc., Cary, NC). […]

[2] = tested on: Podosphaera xanthii; assay: Squash leaf disc assay with wettable powder formulations, control of powdery mildew; settings: squash leaf discs, 150 μL, tebuconazole 10 ppm as control
Protocol: For the tray drying method, 829 grams of cell paste obtained from a liquid culture of ATP15329 was mixed with 18.24 g of glycerol and 72.95 g of microcel E using a food processor. Half of the cell paste was dried at 40° C. to a water activity of less than 0.30, at which time it contained 3.53E11 CFU/g. The other half was dried at 25° C. and 50% RH to a water activity of less than 0.6, at which time it contained 4.75E11 CFU/g. The dried powder formulation was stored in heat sealed mylar pouches at 4° C.
For the spray drying method, 200 grams of cell paste obtained from a liquid culture of ATP15329 was mixed with 22 g of skim milk powder using an emulsion blender. This material was spray dried at outlet temperature of 70° C., at which time it contained 7.86E10 CFU/g. The dried powder formulation was stored in heat sealed mylar pouches at 4° C.
This evaluation followed the protocol used in Example 3. Briefly, leaf disks were each sprayed with 150 μL of different formulations of the bacterial strain AIP015329, tebuconazole 10 ppm (fungicide control) on the adaxial surface 24 hours before inoculation with the fungal pathogen. After treatment, leaf disks were incubated in the dark for 24 hours at 23° C.
Leaf disks were inoculated on the treated leaf surface by spraying a conidial suspension (1×10^6 conidia/ml of sterile distilled water) of P. xanthii. Inoculated and non-inoculated/not treated controls were added. Treatments were placed into sealed clear plastic boxes and incubated for six days at 25° C. with a relative humidity of 80% and a 12 h photoperiod. Each treatment was rated on a disease severity scale from 0 to 4, with 0 being no symptoms and 4 being greater than 50% of the leaf disk covered with colonies. The number of powdery mildew colonies were also recorded for each treatment. This experiment was run once, with each treatment replicated three times. Data was analyzed in SAS JMP version 14.0.

[3] = tested on: Podosphaera xanthii; assay: Squash leaf disc assay, control of powdery mildew on cucurbits; settings: squash leaf discs, bacterial suspension 200 μL, tebuconazole 10 ppm
Protocol: as §1, with “contamination.” for “contamination. Sterile distilled water was added to achieve a final concentration needed in detached-leaf or growth chamber strain evaluations.”
Leaf disks were inoculated on the treated leaf surface by spraying a conidial suspension (1×10^6 conidia/ml of sterile distilled water) of P. xanthii (an isolate obtained from Dr. McGrath laboratory, Cornell University). […] The number of powdery mildew colonies were also recorded for each treatment. […] Data was analyzed in SAS JMP version 14.0.

[4] = tested on: Mycosphaerella fijiensis; assay: Grand Nain (Musa) leaf piece assay, control of black sigatoka; settings: Grand Nain leaf pieces, strain 1×10^8 CFU/ml, mancozeb 10 ppm
Protocol: as §1
Data recorded were the most progressed stage on inoculated leaves, 3 to 4 weeks after inoculation (Stover 1986). Data were analyzed using analysis of variance (ANOVA) in PROC GLM of SAS (version 9.4; SAS Institute Inc., Cary, NC) and significant differences (P<0.05) were observed among treatments.

COC(=O)N(OC)c1ccccc1COc1ccn(-c2ccc(Cl)cc2)n1 [Pyraclostrobin]
Disease Control (%) Confirmation ([1]; confirmation screen with freshly grown culture): 79.2 (a) %
Disease Control (%) Primary Screen ([1]; treated 24 h before inoculation, rated 7 days post inoculation): 95.2 (a) %

CC(C)(C)C(O)(CCc1ccc(Cl)cc1)Cn1cncn1 (stereo not drawn) [Tebuconazole, tebuconazole]
Disease Control (%) Spray dry ([2]; spray dried formulation of the strain): 96.0 (a) %
Disease Control (%) Tray dry Dried at 25° C. ([2]; tray dried formulation dried at 25° C.): 96.0 (a) %
Disease Control (%) Tray dry Dried at 40° C. ([2]; tray dried formulation dried at 40° C.): 96.0 (a) %
Disease Control (%) Confirmation ([3]; confirmation): 75.0 (a) %
Disease Control (%) Primary Screen ([3]; treated 24 h before inoculation, six days incubation): 87.5 (a) %

mancozeb
Disease Control (%) Primary Screen ([4]; 3 to 4 weeks after inoculation): 92.3 (a) %
Disease Control (%) Confirmation ([4]; confirmation): 81.0 (a) %
